These results are taken from PubChem BioAssay AID1645848.

≈ marks a conversion by molar mass, not a printed value.

The conditions of this series: buffer; pH 7.4; 6.0 h; 150.0 µM.

In the case of `C=CCON=C(C[C@H]1O[C@@H]2O[C@]3(C)CC[C@@H]4[C@H](C)CC[C@@H]([C@H]1C)[C@@]24OO3)[C@H]1O[C@@H]2O[C@]3(C)CC[C@H]4[C@H](C)CC[C@@H]([C@@H]1C)[C@@]24OO3`, the kinetic solubility (in general, the concentration staying in solution when a stock, usually in DMSO, is diluted into the medium) came out at 26.6 µg/mL (≈ 42.1 µM).
As to `O=[S+]([O-])(Nc1nccs1)c1ccc(NCc2ccc(Cl)c(Cl)c2)cc1`, the kinetic solubility was less than 1 µg/mL.
Next, `CCOc1ccc(CCNC(=O)c2ccc3ccccc3n2)cc1OCC`: 8.84 µg/mL (≈ 24.3 µM); `CC(=O)c1ccc(N[S+](=O)([O-])c2cccc(NC(=O)c3[nH]c(C)c(C(C)=O)c3C)c2)cc1`: 21.3 µg/mL (≈ 47 µM).
The value for `Cc1ccc(S(=O)(=O)Nc2ccncc2C(=O)Nc2nc(-c3ccccc3)cs2)cc1` was less than 1 µg/mL.
Consider `COc1cc(C(=O)Nc2nc(-c3ccccc3)cs2)ccc1NS(=O)(=O)c1ccc(C)cc1`, for which the kinetic solubility was less than 1 µg/mL.
For `O=C(Nc1ccccc1F)c1nc(S(=O)(=O)Cc2ccccc2F)ncc1Cl`, the kinetic solubility is 3.63 µg/mL (≈ 8.57 µM).
With `CC(=O)Nc1cccc(-c2csc(Nc3cc(C)ccn3)n2)c1`, the solubility (kinetic) was less than 1 µg/mL.
The value for `COc1ccc(OCc2ccc(-c3nc(C#N)c(NC(C)c4ccccc4)o3)o2)cc1` (centres undefined) was less than 1 µg/mL; that for `O=c1c(-c2cccs2)ccc2n1C[C@H]1C[C@@H]2CN(C2CCOCC2)C1` was more than 79 µg/mL; that for `Nc1nc2c(s1)C(c1c(Cl)cccc1Cl)CC(=O)N2` (centres undefined) was less than 1 µg/mL.
Consider `CC(=O)c1c(C)[nH]c(C(=O)Nc2ccc(C)c(S(=O)(=O)N3CCCCCC3)c2)c1C`, for which the kinetic solubility was 1.05 µg/mL (≈ 2.44 µM).
Next, `c1ccc(Nc2cc3c(cn2)CN(Cc2ccc4[nH]ccc4c2)CCN3)cc1`: 30.6 µg/mL (≈ 82.8 µM); `O=S(=O)(Nc1nccs1)c1ccc(NCc2cccc(O)c2)cc1`: more than 53 µg/mL; `Nc1c(S(=O)(=O)c2cccs2)c2nc3ccccc3nc2n1Cc1ccccc1`: less than 1 µg/mL.
The value for `O=c1cc(CSc2ccc(Cl)cc2)nc(-c2ccccn2)[nH]1` was 1.18 µg/mL (≈ 3.58 µM); that for `CCOC(=O)C1CCN(c2ncc(-c3ccc4c(c3)OCCCO4)s2)CC1` was less than 1 µg/mL; that for `CCOc1ccc(CCNC(=O)c2cc3ccncc3n2Cc2cccc(C)c2)cc1OCC` was 55.7 µg/mL (≈ 122 µM).
Next, `Cc1cnc(CNc2nc(-c3cccc(NS(C)(=O)=O)c3)nc3ccccc23)cn1`: 44 µg/mL (≈ 105 µM).
In the case of `O=C(Nc1ccccc1)C1CCN(c2nc(-c3ccc(Br)cc3)cs2)CC1`, the solubility (kinetic) worked out at 5.11 µg/mL (≈ 11.5 µM).
Consider `FC(F)(F)c1cccc(Nc2ccc(CNc3nc(-c4ccccc4C(F)(F)F)nc4ccccc34)cc2)c1`, for which the solubility (kinetic) was less than 1 µg/mL.
In the case of `Cc1ccc(S(=O)(=O)Nc2cc(C(=O)Nc3nc(-c4ccccc4)cs3)ccn2)cc1`, the solubility (kinetic) is less than 1 µg/mL.
`O=C1c2ccccc2C2=Nc3ccccc3SC(c3ccccc3F)C12` (centres undefined) had a kinetic solubility of less than 1 µg/mL.
With `Cc1nc2ccc(C(=O)N3CCC4(CC3)CC(=O)c3c(cnn3C(C)C)C4)cc2[nH]1`, the kinetic solubility was more than 60 µg/mL.
`CN(C)c1cccc(-c2cnc(Nc3cccnc3)c3c2CCO3)c1` registered a solubility (kinetic) of less than 1 µg/mL.
`CCOC(=O)c1c(NC(=O)CN2CCCCC2)sc2c1CCN(C(=O)OCC)C2` came in with a solubility (kinetic) of 27.6 µg/mL (≈ 65.2 µM).
`O=C(Nc1cccc(F)c1)c1cc(-c2ccc[nH]2)n[nH]1`: the solubility (kinetic) amounted to 1.77 µg/mL (≈ 6.57 µM).
Turning to `COc1cccc(C(=O)Nc2ccc3oc(-c4ccc5ccccc5c4)nc3c2)c1`, the solubility (kinetic) is less than 1 µg/mL.
`COc1cccc(NS(=O)(=O)c2ccc(NCc3cccc(OC)c3O)cc2)c1` displayed a kinetic solubility of 1.92 µg/mL (≈ 4.64 µM).
In turn, `O=C(NC1CCN(c2cc(-c3ccc(Cl)cc3)[nH]n2)C1)c1ccccc1` (centres undefined) yielded a solubility (kinetic) of less than 1 µg/mL.
Regarding `O=C1Nc2cc(Cl)ccc2Nc2cscc21`, the kinetic solubility is 9.92 µg/mL (≈ 39.6 µM).
The value for `COc1ccc(-c2ccc3ncc(Nc4cccnc4OC)n3n2)cn1` was 5.33 µg/mL (≈ 15.3 µM); that for `Cc1ccc(/C=C/c2nc3ccccc3n2S(=O)(=O)c2cccc(Cl)c2)cc1` was less than 1 µg/mL.
In the case of `COc1ccc2[nH]c(C[C@@H]3C[C@@H](C(C)C)[C@H](CNCc4ccccc4O)C=C3C)nc2n1`, the solubility (kinetic) stood at 42.1 µg/mL (≈ 96.9 µM).
